# In patent US20050276766A1, “Methods and compositions for increasing skin remodeling” (Skin Biology, Inc., priority 2003, published 2005):
# Tested on: scar formation after surgical incisions
# Assay: Scar formation after surgical incisions in mice, cream applied 24 hours after surgery
# Format: in vivo, Swiss-Webster mice
# Details: rated from 0 (little or no scarring) to 4 (maximum observed scarring); cream at pH 6.5 applied 24 hours after 1.25 cm surgical incision; 15 mice
# Experimental: This Example describes the use of a pastes prepared with the complexes of various copper peptides or copper complexes of amino acids and combinations of copper peptides or copper complexes of amino acids and salicylic acid to reduce scarring after surgery in animals.
# Surgical incisions (1.25 cm) were made on the backs of anesthetized, 35 gram, Swiss-Webster mice. To allow normal scar development, there was no treatment after surgery. But 24 hours after surgery, the scars were covered with a cream containing either copper peptide alone or in combination with salicylic acid. Control wounds were untreated.
# For comparison, the amount of scar formation was rated from 0 (little or no scarring) to 4 (maximum observed scarring) after seven days.
# Table 1: Effect of cream at pH 6.5 with either peptide-copper complex or amino acid-copper complex or the combination of peptide copper/salicylic acid combination or amino acid copper/salicylic acid combination on scar formation
substance,measurement,value
Gly-His-Lys-Copper(II),Scar Formation score after 7 days,2.7 ± 0.6
